Test results taken from PubChem BioAssay (NCI).
Values joined by “and” are separate entries in the source; they are usually repeats but may differ in a detail not shown here. Equal values may be shown once.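 A five-concentration, 48-hour dose response in 96-well plates underlies each endpoint, interpolated linearly between surrounding concentrations. GI50 marks 50% less growth. Definition used: TGI = concentration required for complete inhibition of growth.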

What was measured:
Assay in all cases: NCI anticancer screen, dose series, 48 h
A549 NSCLC = system: A549 NSCLC
HT29 colon = system: HT29 colon
MALME-3M melanoma = system: MALME-3M melanoma
NCI-H226 lung = system: NCI-H226 lung
NCI-H522 lung = system: NCI-H522 lung
NCI/ADR-RES ovarian = system: NCI/ADR-RES ovarian
OVCAR-3 ovarian = system: OVCAR-3 ovarian
SK-MEL-5 melanoma = system: SK-MEL-5 melanoma
T-47D breast = system: T-47D breast
UACC-62 melanoma = system: UACC-62 melanoma

| SMILES | TGI (A549 NSCLC) | TGI (HT29 colon) | TGI (MALME-3M melanoma) | TGI (NCI-H226 lung) | TGI (NCI-H522 lung) | TGI (NCI/ADR-RES ovarian) | TGI (OVCAR-3 ovarian) | TGI (SK-MEL-5 melanoma) | TGI (T-47D breast) | TGI (UACC-62 melanoma) | GI50 (A549 NSCLC) | GI50 (HT29 colon) | GI50 (MALME-3M melanoma) | GI50 (NCI-H226 lung) | GI50 (NCI-H522 lung) | GI50 (NCI/ADR-RES ovarian) | GI50 (OVCAR-3 ovarian) | GI50 (SK-MEL-5 melanoma) | GI50 (T-47D breast) | GI50 (UACC-62 melanoma) |
| --- | --- | --- | --- | --- | --- | --- | --- | --- | --- | --- | --- | --- | --- | --- | --- | --- | --- | --- | --- | --- |
| CCc1nc(Cl)nc(Cl)c1Cl | 9.56 µM | 5.04 µM | 1.57 µM | 14.9 µM | 0.234 µM | 9.41 µM | 2.08 µM | 7.71 µM | 22 µM | 19 µM | – | – | – | – | – | – | – | – | – | – |
| Cc1c(NC(=O)OC[C@@H]2COCCN2)cn2ncnc(Nc3ccc4c(cnn4Cc4cccc(F)c4)c3)c12 | > 10 µM and 21.5 µM | > 10 µM and 16.9 µM | > 10 µM and 31.2 µM | > 10 µM and 35.6 µM | > 10 µM and 17.4 µM | > 10 µM and 33.5 µM | > 10 µM and 21.5 µM | > 10 µM and 17.4 µM | 9.52 µM and 10.3 µM | > 10 µM and 18.7 µM | > 10 µM and 8.26 µM | 6.38 µM and 4.65 µM | > 10 µM and 10.5 µM | > 10 µM and 11.3 µM | > 10 µM and 2.16 µM | > 10 µM and 13.1 µM | > 10 µM and 6.66 µM | 5.3 µM and 5.56 µM | 1.36 µM and 1.14 µM | > 10 µM and 4.82 µM |
| O=C(c1ccccc1)c1nc2ccc(C(F)(F)F)cc2[n+]([O-])c1C(F)(F)F | > 100 µM | > 100 µM | > 100 µM | > 100 µM | 79 µM | > 100 µM | > 100 µM | 48 µM | > 100 µM | > 100 µM | 26 µM | 48.6 µM | 47.6 µM | 59 µM | 24.7 µM | 27 µM | 24.2 µM | 17.5 µM | 20.4 µM | 33.7 µM |
| O=C(CCCCCCSc1nc(-c2ccc(Cl)cc2)cc(-c2ccc(Cl)cc2)n1)NO | 5.1 µM | 7.46 µM | 4.45 µM | 17.5 µM | 4.45 µM | 2.97 µM | 4.91 µM | 2.74 µM | 9.13 µM | 4.18 µM | 1.42 µM | 1.41 µM | 1.16 µM | 1.71 µM | 0.97 µM | 0.998 µM | 1.38 µM | 1.19 µM | 1.39 µM | 1.26 µM |
| CCCSC1=NC2C(N(CC)C(=O)N2CC)N1/N=C/C=C/c1ccccc1[N+](=O)[O-] (stereo not given) | > 100 µM | > 100 µM | > 100 µM | > 100 µM | 41 µM | 8.46 µM | 14.9 µM | 10.3 µM | > 100 µM | > 100 µM | 4.25 µM | 3.16 µM | 4.74 µM | 3.32 µM | 2.12 µM | 2.5 µM | 3.11 µM | 2.76 µM | 4.21 µM | 2.81 µM |
| Cc1cc(C)nc(SC2=C(Nc3cccc(Cl)c3C)C(=O)N(Cc3ccccc3)C2=O)n1 | > 160 µM | > 160 µM | > 160 µM | > 160 µM | > 160 µM | > 160 µM | > 160 µM | > 160 µM | > 160 µM | > 160 µM | > 160 µM | > 160 µM | > 160 µM | > 160 µM | > 160 µM | > 160 µM | > 160 µM | > 160 µM | > 160 µM | > 160 µM |
